Measured values as given in US8440814B2, “Derivatives of cyclodextrins, process for their preparation and their use in particular for solubilizing pharmacologically active substances” (Centre National de la Recherche Scientifique, priority 2003, dated 2013).
Values joined by “and” are separate entries in the source; they are usually repeats but may differ in a detail not shown here. Identical values can stand only once. Like-named read-outs stand apart in the source and are kept apart here. Each block holds one compound with its values, some of them ahead of it.

Key:
[1] = target: concanavalin A (ConA) lectin (Canavalia ensiformis, UniProt P02866); format: binding
Method: The affinity of the thioureidocysteaminyl-cyclodextrins of the invention for specific membrane lectins was evaluated in vitro following the ELLA (Enzyme-Linked Lectin Assay) protocol. […] 2002, 102, pp. 555-578. This technique measures the capacity of a soluble mono- or oligosaccharide ligand to inhibit the association between a complementary lectin and another reference ligand fixed to a plastic support microplate.
The IC50 values are inversely proportional to the respective affinities.
The cells of a microtitre plate (Nunc-Immuno™ plates, MaxiSorp™) are loaded with 100 μL of a stock solution of yeast mannan (Sigma, 10 μg·mL^−1) in a saline phosphate buffer solution (PBS; pH 7.3 containing Ca^2+ 0.1 mM and Mn^2+ 0.1 mM) for one night at ambient temperature. The cells are washed (3×300 μL) with a buffer solution containing 0.05% (v/v) of Tween 20 (PBST). This washing protocol is repeated after each incubation during the test. A bovine serum albumin solution (BSA, 1%) in PBS (150 μL/cell) is then added to the cells followed by incubation for 1 hour at 37° C., then washed.
In order to determine the optimal lectin concentration for inhibition studies, 100 μL of a series of concanavalin A solutions marked with radish peroxidase of 10^−1 to 10^−5 mg·mL^−1 in PBS is added to the cells loaded with mannan, and treated as indicated above. After incubation at 37° C. for 1 hour, the plates are washed (PBST) and a solution (50 μL) of the diammonium salt of 2,2′-azinobis(3-ethylbenzothiazoline-6-sulphonic) acid (ABTS, 1 mg in 4 mL) in citrate buffer (0.2 M, pH 4.0 with 0.015% hydrogen peroxide) is added. The reaction is stopped after 20 minutes by adding 50 μL/cell of sulphuric acid 1 M and the absorbances are measured at 415 nm using an ELISA reader. The control cells contained citrate-phosphate buffer.
In a series of experiments ConA marked with radish peroxidase in an appropriate concentration as indicated above (60 μL/cell) is added to the solutions of each compound (60 μL/cell) in PBS sequentially diluted twice, in a Nunclon™ (Delta) microtitre plate which is incubated at 37° C. for 1 hour. The solutions (100 μL/cell) are then transferred onto a microtitre plate loaded with mannan and treated as indicated above, which is then incubated at 37° C. for 1 hour. The cells are washed (PBST) and the ABTS solution (50 μL/cell) is added. After 20 minutes, the reaction is stopped (sulphuric acid) and the absorbances are measured. The percentage of inhibition is calculated with the formula: […]

[2] = solubilization of Taxotere in water by inclusion in the cyclodextrin derivative; format: physicochemical; conditions: 50 mmol·L^−1 of compound in sterile water; for solubility of the Taxotere in a solution of the compound: stirred at 70° C., stays in solution at ambient temperature
Description: These inclusion complexes can be prepared for example by adding to a solution or a suspension of the compound of the invention of formula (I) the pharmacologically active molecule in solution or in the pure state. The inclusion complex thus formed can be isolated by freeze-drying.
In the case of the compounds of the taxol family, such as Taxotere®, it is also possible to disperse this product in the pure state in a sterile solution of a compound according to the invention.
Starting with Taxotere in the pure state, 2.1 mg ([…]) of this product is dispersed in 1 mL of a solution containing 50 mmol·L^−1 of compound No. 1 in sterile water, then the suspension obtained is stirred at 70° C. until a clear solution is obtained which indicates the complexing of the Taxotere.

[3] = as described in WO 95/19994; cited from earlier work
solubility in water = format: physicochemical

Compound: OC[C@H]1O[C@H](OCC(CO[C@H]2O[C@H](CO)[C@@H](O)[C@H](O)[C@@H]2O)(CO[C@H]2O[C@H](CO)[C@@H](O)[C@H](O)[C@@H]2O)NC(=S)NCCSC[C@H]2O[C@@H]3O[C@H]4[C@H](O)[C@@H](O)[C@@H](O[C@H]5[C@H](O)[C@@H](O)[C@@H](O[C@H]6[C@H](O)[C@@H](O)[C@@H](O[C@H]7[C@H](O)[C@@H](O)[C@@H](O[C@H]8[C@H](O)[C@@H](O)[C@@H](O[C@H]9[C@H](O)[C@@H](O)[C@@H](O[C@H]2[C@H](O)[C@H]3O)O[C@@H]9CSCCNC(=S)NC(CO[C@H]2O[C@H](CO)[C@@H](O)[C@H](O)[C@@H]2O)(CO[C@H]2O[C@H](CO)[C@@H](O)[C@H](O)[C@@H]2O)CO[C@H]2O[C@H](CO)[C@@H](O)[C@H](O)[C@@H]2O)O[C@@H]8CSCCNC(=S)NC(CO[C@H]2O[C@H](CO)[C@@H](O)[C@H](O)[C@@H]2O)(CO[C@H]2O[C@H](CO)[C@@H](O)[C@H](O)[C@@H]2O)CO[C@H]2O[C@H](CO)[C@@H](O)[C@H](O)[C@@H]2O)O[C@@H]7CSCCNC(=S)NC(CO[C@H]2O[C@H](CO)[C@@H](O)[C@H](O)[C@@H]2O)(CO[C@H]2O[C@H](CO)[C@@H](O)[C@H](O)[C@@H]2O)CO[C@H]2O[C@H](CO)[C@@H](O)[C@H](O)[C@@H]2O)O[C@@H]6CSCCNC(=S)NC(CO[C@H]2O[C@H](CO)[C@@H](O)[C@H](O)[C@@H]2O)(CO[C@H]2O[C@H](CO)[C@@H](O)[C@H](O)[C@@H]2O)CO[C@H]2O[C@H](CO)[C@@H](O)[C@H](O)[C@@H]2O)O[C@@H]5CSCCNC(=S)NC(CO[C@H]2O[C@H](CO)[C@@H](O)[C@H](O)[C@@H]2O)(CO[C@H]2O[C@H](CO)[C@@H](O)[C@H](O)[C@@H]2O)CO[C@H]2O[C@H](CO)[C@@H](O)[C@H](O)[C@@H]2O)O[C@@H]4CSCCNC(=S)NC(CO[C@H]2O[C@H](CO)[C@@H](O)[C@H](O)[C@@H]2O)(CO[C@H]2O[C@H](CO)[C@@H](O)[C@H](O)[C@@H]2O)CO[C@H]2O[C@H](CO)[C@@H](O)[C@H](O)[C@@H]2O)[C@@H](O)[C@@H](O)[C@@H]1O [Compound No. 3, heptakis[6-S-[2-N′-tris(α-D-mannopyranosyloxymethyl)methylthioureido]ethyl-6-thio]cyclomaltoheptaose]
Relative affinity [1]: 41
Relative molar affinity [1]: 2.0

Compound: heptakis[6-S-[2-N′-[2,2-bis[5-(1-thio-α-D-mannopyranosyl)-2-oxapentyl]-2-[5-(1-thio-β-D-glucopyranosyl)-2-oxapentyl]ethyl]thioureido]ethylthio]cyclomaltoheptaose [Compound No. 7]
Relative affinity [1]: 67
Relative molar affinity [1]: 4.8

Compound: heptakis[6-S-[2-N′-[2-[5-(1-thio-α-D-manno pyranosyl)-2-oxapentyl]-2,2-bis[5-(1-thio-β-D-glucopyranosyl)-2-oxapentyl]ethyl]thioureido]ethyl-6-thio]cyclomaltoheptaose [Compound No. 6]
Relative affinity [1]: 48
Relative molar affinity [1]: 6.9
recognition by ConA (in words) [1]: not recognized by ConA

Compound: OCC1OC(NC(=S)NCC2OC3OC4C(CNC(=S)NC5OC(CO)C(O)C(O)C5O)OC(OC5C(CNC(=S)NC6OC(CO)C(O)C(O)C6O)OC(OC6C(CNC(=S)NC7OC(CO)C(O)C(O)C7O)OC(OC7C(CNC(=S)NC8OC(CO)C(O)C(O)C8O)OC(OC8C(CNC(=S)NC9OC(CO)C(O)C(O)C9O)OC(OC9C(CNC(=S)NC%10OC(CO)C(O)C(O)C%10O)OC(OC2C(O)C3O)C(O)C9O)C(O)C8O)C(O)C7O)C(O)C6O)C(O)C5O)C(O)C4O)C(O)C(O)C1O [heptakis(6-deoxy-6-α-D-mannopyranosylthioureido)cyclomaltoheptaose, reference compound]
inhibition of the association between concanavalin A and yeast mannan ([1]; 175 µM): 8%

Compound: heptakis[6-S-[2-N′-[2,2,2-tris[5-(1-thio-α-D-mannopyranosyl)-2-oxapentyl]ethyl]thioureido]ethyl-6-thio]cyclomaltoheptaose [Compound No. 4]
increase in the solubility of the Taxotere versus absence of cyclodextrin [2]: ~500 times
solubility of the Taxotere in a solution of the compound [2]: 2000 µg/mL
Relative affinity [1]: 173
Relative molar affinity [1]: 8.2

Compound: 6^I-S-α-maltosyl-6^I-thiocyclomaltoheptaose
solubility in water of Taxotere on adding the cyclodextrin derivative to its aqueous suspension [3]: up to 6.5 g/L

Compound: COC1OC(CO)C(O)C(O)C1O [Me-α-D-Glcp, methyl-α-D-glucopyranoside, reference compound]
Relative affinity ([1]; relative to Me-α-D-Glcp = 1): 1
Relative molar affinity ([1]; relative to Me-α-D-Glcp = 1): 1

increase in the solubility of the Taxotere versus absence of cyclodextrin [2]: ~525 times
solubility of the Taxotere in a solution of the compound [2]: 2100 µg/mL
solubility in water (solubility in water): 500 g·L^−1 and 323 mmol·L^−1
Compound: Cl.Cl.Cl.Cl.Cl.Cl.Cl.NCCSC[C@H]1O[C@@H]2O[C@H]3[C@H](O)[C@@H](O)[C@@H](O[C@H]4[C@H](O)[C@@H](O)[C@@H](O[C@H]5[C@H](O)[C@@H](O)[C@@H](O[C@H]6[C@H](O)[C@@H](O)[C@@H](O[C@H]7[C@H](O)[C@@H](O)[C@@H](O[C@H]8[C@H](O)[C@@H](O)[C@@H](O[C@H]1[C@H](O)[C@H]2O)O[C@@H]8CSCCN)O[C@@H]7CSCCN)O[C@@H]6CSCCN)O[C@@H]5CSCCN)O[C@@H]4CSCCN)O[C@@H]3CSCCN [Compound No. 1, heptakis[6-S-(2-aminoethyl-6-thio)]cyclomalto heptaose heptahydrochloride]

Compound: OC[C@H]1O[C@H](NC(=S)NCCSC[C@H]2O[C@@H]3O[C@H]4[C@H](O)[C@@H](O)[C@@H](O[C@H]5[C@H](O)[C@@H](O)[C@@H](O[C@H]6[C@H](O)[C@@H](O)[C@@H](O[C@H]7[C@H](O)[C@@H](O)[C@@H](O[C@H]8[C@H](O)[C@@H](O)[C@@H](O[C@H]9[C@H](O)[C@@H](O)[C@@H](O[C@H]2[C@H](O)[C@H]3O)O[C@@H]9CSCCNC(=S)N[C@H]2O[C@H](CO)[C@@H](O)[C@H](O)[C@@H]2O)O[C@@H]8CSCCNC(=S)N[C@H]2O[C@H](CO)[C@@H](O)[C@H](O)[C@@H]2O)O[C@@H]7CSCCNC(=S)N[C@H]2O[C@H](CO)[C@@H](O)[C@H](O)[C@@H]2O)O[C@@H]6CSCCNC(=S)N[C@H]2O[C@H](CO)[C@@H](O)[C@H](O)[C@@H]2O)O[C@@H]5CSCCNC(=S)N[C@H]2O[C@H](CO)[C@@H](O)[C@H](O)[C@@H]2O)O[C@@H]4CSCCNC(=S)N[C@H]2O[C@H](CO)[C@@H](O)[C@H](O)[C@@H]2O)[C@@H](O)[C@@H](O)[C@@H]1O [Compound No. 2]
IC50 [1]: 175 µM
Relative affinity [1]: 4.9
Relative molar affinity [1]: 0.7
